Measured values as given in US7112570B2, “GPE analogs” (Neuren Pharmaceuticals, Ltd., priority 2000, dated 2006).
Ends that are not written are not given here. 3H = tritium label

Key:
[1] = rat, in vivo
Method: (§1) Tritiated GPE (Gly-[^3H]Pro-Glu, 1.6 ml, specific activity 50–60 Ci/mmol) obtained from Sibtech, Inc., USA was used in these experiments.
(§2) Adult Wistar rats (300 g) were prepared under halothane/O2 anaesthesia. The rats were randomly assigned to one of four groups: tritiated GPE, saline+0.1% BSA, tritiated GPE+non-tritiated GPE or tritiated proline. Rats in the tritiated GPE, tritiated proline and control groups were sacrificed at 30 min, 1 hr or 6 hrs after administration. Rats co-administered with both tritiated and non- tritiated GPE were sacrificed at 10 minutes after administration. For all groups, tissue was homogenized in Soluene® (a tissue solubilizer; Packard Bioscience Company, Meriden Conn.) and counted in a β counter.
(§3) Rats were injected with 10 million counts of tritiated GPE in 500 μl total (made up with 0.1% BSA in saline). Animals were sacrificed at 30 minutes, 1, 3 or 6 hrs. Tissue was homogenized in Soluene® and counted in a β counter.
(§4) Adult Wistar rats (300 g) were prepared under halothane/O2 anaesthesia. A guide cannula was placed on the dura 7.5 mm anterior from stereotaxic zero and 1.5 mm from midline on the right. One million counts of GPE and 600 μl of non-tritiated GPE were injected in 8 μl total volume (made up with 0.1% BSA in saline). Rats were sacrificed 30 minutes after administration. Tissue was homogenized in Soluene® and counted in a β counter.
(§5) Tritiated GPE, tritiated GPE+non-tritiated GPE, tritiated proline (Amersham) or tritiated proline+non-tritiated proline in vehicle (0.1M citrate buffer [pH6], diluted 10 times in 0.1% bovine serum albumin in 0.1M phosphate buffered saline [PBS] [pH7.3]) were then given by different routes of administration to injured and non-injured rats according to the following study design:
(§6) Cardiac administration was performed using a syringe. The syringe needle was placed into the left ventricle and one of the above four solutions was given.
(§7) IV administration was carried out by injecting one of the four solutions into the tail vein.
(§8) IP administration was performed by injecting one of the four solutions into the peritoneal cavity.
(§9) ICV administration was carried out according to the following procedure. The rats were lightly anaesthetized again using 0.15 ml Saffan™ (Pitman-Moore Ltd, NZ). The infusion of one of the four solutions was made into the right lateral ventricle guided by a metal cap fitted over the rat head using a modified technique originally described by Jirikowski (J Neuroscience Methods, 42: 115–118, 1992), in order to ensure correct placement of the infusion needle. One of the four solutions was administered in a single dose.
(§10) The rats were sacrificed using pentobarbital 10, 60 or 360 minutes after administration of either tritiated GPE or tritiated proline. […] Counts/minute/mg were made in the following tissues: kidney, blood, adrenal glands, liver, lung, testicle, heart, muscle, spinal cord and brain. HPLC was used in order to check that the particles counted were either tritiated GPE or tritiated proline.

[2] = tested on: hypoxic-ischemic injury, hippocampal CA1/2 neurons; assay: Neuronal survival after hypoxic-ischemic injury, GPE administered peripherally; type: in vivo; conditions: rat, GPE intraperitoneally 2 hours after hypoxia, sacrificed 7 days after injury, FIG. 4
Method: This experiment involved treating rats with a control vehicle or GPE administered peripherally 2 hours after a focal CNS injury. […] The degree and length of hypoxia, the ambient temperature and humidity were defmed to standardize the degree of damage. The neuronal death is restricted to the side of the carotid ligation and is primarily in the hippocampus, dentate gyrus, striatum and lateral cortex of the ligated hemisphere. There is no neuronal loss in the contralateral hemisphere.
Specifically forty-nine 50–60 day old adult Wistar rats (280–310 g) were prepared under halothane/O2 anaesthesia. The right side carotid artery was ligated. The rats were allowed to recover for 1 hour and were then placed in an incubator with humidity 90±5% and temperature 31±0.5° C. for 1 hour before hypoxia. Oxygen concentration was reduced and maintained at 6±0.2% 02 for 10 minutes. […]
The rats were transcardially perfised with 0.9% saline followed by 4% paraformaldehyde, and the brains were removed and embedded in paraffin. […] Only cells with a morphology like live neurons were counted, while dead neurons or cells with morphology like glia were not included. […]
A coronal section (A-P 4.5 mm) was used for analysis of the hippocampus. All surviving neurons in the hippocampal CA1/2 region of the injured hemisphere were counted. Data were analysed with paired t-test and presented as mean±sem (standard error of the mean).

[3] = Tissue distribution / brain accumulation of tritiated GPE after cardiac, iv, ip or icv administration; conditions: rat
Method: as §1, §2, §3, §4, §5, §6, §7, §8, §9, §10

[4] = tested on: ^3H-Me-GPE binding sites in the rat brain; assay: ^3H-Me-GPE binding autoradiography on rat tissue sections; conditions: excess (10 μM) of competitor
Method: After tritiation the reaction mixture was diluted in ammonium acetate buffer (0.05M, pH 5.5 with 20% v/v methanol, 10 ml) and purified using Accell CM- and QMA+Sep-Paks (Waters, Milford, Mass., USA) in series. After washing with the ammonium acetate buffer to remove reagents and byproducts (tritiated water and tritiated methanol), the CM- and QMA+cartridges were uncoupled and the ^3H-Me-GPE was eluted from the QMA cartridge with ammonium bicarbonate (0.3M, 6 ml). The eluted material was lyophilized twice to remove the bulk of the ammonium bicarbonate, dissolved in ethanol-water (1:19, 20 μl ) and aliquots stored at −70° C.
The following experimental protocol followed guidelines approved by the University of Auckland Animal Ethics Committee. Adult male Wistar rats were killed by decapitation and tissues immediately removed and stored at −80° C. Coronal sections (16 μm) were cut on a cryostat and mounted on gelatin-coated slides. Normal adult human postmortem brain (n=4) tissue was cut and mounted in a similar manner. […]

## Gly-[^3H]Pro-Glu (Gly-Pro(3H)-Glu; UniProt P05019 49-51, looked up, fragment) [tritiated GPE]
[1]
  amount in the brain relative to the blood: increases over time
  time-point at which there was the most tritiated GPE in the brain: 60 min

## Gly-Pro-Glu [GPE]
[2]
  neuronal survival in the hippocampus after an hypoxic-ischemic injury: increases neuronal survival
[3]; ICV administration
  uptake in the brain of rats with an hypoxic-ischemic brain injury: selectively taken up on the injured side of the brain
[3]; cardiac administration, supported by ICV administration
  displacement when tritiated and non-tritiated GPE were administered together: the only displacement of GPE occurred in the brain
[3]; including in the absence of neural insult
  ability to pass through the blood-brain-barrier: pass through the blood-brain-barrier
[3]; ip administration
  amount in the brain compared to the corresponding time-points after iv and cardiac injection: increased

## N-methyl-GPE
[4]
  blockade of ^3H-Me-GPE binding in the CA1-2 region: blocked
